Source: BindingDB's records for doi:10.1021/jm800325y (National Taiwan University, 2008)

Target: T1, Geranylgeranyl pyrophosphate synthase (Homo sapiens, UniProt O95749)
T1 sequence (O95749 whole entry): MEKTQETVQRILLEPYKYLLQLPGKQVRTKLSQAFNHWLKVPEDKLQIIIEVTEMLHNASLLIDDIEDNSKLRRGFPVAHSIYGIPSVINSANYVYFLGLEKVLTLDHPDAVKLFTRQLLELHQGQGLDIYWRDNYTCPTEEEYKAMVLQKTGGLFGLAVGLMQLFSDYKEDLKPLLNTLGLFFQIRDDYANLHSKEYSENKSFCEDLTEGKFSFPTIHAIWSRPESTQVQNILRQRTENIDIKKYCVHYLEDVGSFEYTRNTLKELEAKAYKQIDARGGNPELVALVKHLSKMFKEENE
Assay: GGPP Synthase Inhibition Assay
Conditions: pH 7; 37 °C
Method: The inhibitory activity of each test compound was evaluated by monitoring the formation of [14C]GGPP from FPP, using [14C]IPP as the substrate. To confirm the formation of radioactive products, one-dimensional thin-layer chromatography (TLC), with autoradiographic detection of [14C]FPP/[14C]GGPP, was used.

Compound | IC50
CCCCCCCCc1ccc[n+](CC(O)(P(=O)([O-])O)P(=O)(O)O)c1 (configuration not stated) [1-(2-hydrogenphosphonato-2-hydroxy-2-phosphonoethyl)-3-octylpyridin-1-ium] | 1.38 µM
CCCCCCCCCC(O)(P(=O)(O)O)P(=O)(O)O [(1-hydroxy-1-phosphonodecyl)phosphonic acid] | 0.89 µM
